Reference: ChEMBL document CHEMBL5316363, “Compounds Related to Saudin and Three New Series of Diterpenoids from Clutia lanceolata” (2023)

Organism: Mus musculus
Test: Induction of glucose-triggered insulin secretion in BALB/c mouse islets of langerhans measured per islets incubated for 60 mins by ELISA analysis (reference value: 11.8 +/- 0.8 ng/hr)
Format: functional
Settings: 1 h

SMILES	Activity [ng/h]
COC(=O)[C@]1(C)CCC[C@@]2(C)C3=C(C)C(=O)O[C@@H](c4ccoc4)[C@@H]3[C@@H](OC(C)=O)[C@]12O	9.3
COC(=O)[C@]1(C)CCC[C@@]2(C)C3=C(C)C(=O)O[C@@H](C4=CC(=O)OC4O)[C@@H]3[C@@H](OC(C)=O)[C@]12O (stereo not given in full)	16.4
CC(=O)O[C@H]1[C@@H]2[C@@H]([C@@H](C)C(=O)O[C@H]2c2ccoc2)[C@@]23CCC[C@@](C)(C(=O)OC2O)[C@@]13O (stereo not given in full)	16.6
C[C@@H]1C(=O)O[C@@H](c2ccoc2)C[C@H]1[C@@]1(C)CCC[C@@]2(C)COC(=O)[C@@H]21	16.9
C[C@@H]1C(=O)O[C@@]23COC(=O)[C@]2(C)CCC(=O)[C@@]3(C)[C@@H]1CC(=O)c1ccoc1	16.3
C[C@@H]1C(=O)O[C@@]23CC[C@@]4(C)C(=O)OC[C@]45O[C@@](c4ccoc4)(C[C@H]1[C@]25C)O3	25.5
COC(=O)[C@]1(C)CCCC2=C1[C@@H](OC(C)=O)[C@H]1[C@H](c3ccoc3)OC(=O)[C@@H](C)[C@@]21O	12.5
COC(=O)[C@]1(C)CCC[C@@]2(C)[C@@]3(O)[C@@H]([C@@H](OC(C)=O)[C@@]21O)[C@H](c1ccoc1)OC(=O)[C@@H]3C	24.7
CC(=O)O[C@@H]1[C@@H]2C(=C(C)C(=O)O[C@H]2c2ccoc2)[C@]2(C)[C@@H]3CC[C@@](C)(C(=O)O3)[C@@H]12	8
C[C@H]1C(=O)O[C@@H](c2ccoc2)C[C@H]1[C@@]1(C)CCC[C@@]2(C)C(=O)OC[C@H]12	10.6
CC(=O)O[C@@H]1[C@H]2[C@H](c3ccoc3)OC(=O)[C@H](C)[C@@]2(O)[C@@]23CCC[C@@](C)(C(=O)OC2)[C@@]13O	8
C[C@@H]1C(=O)O[C@@]23CC[C@@]4(C)C(=O)OC[C@]45O[C@@](C4=CC(=O)OC4O)(C[C@H]1[C@]25C)O3 (stereo not given in full)	20.8
C[C@@H]1C(=O)O[C@@]23CC[C@@]4(C)C(=O)OC[C@]45O[C@@](C4=C[C@H](O)OC4=O)(C[C@H]1[C@]25C)O3	25.5
COC(=O)[C@]1(C)CC[C@@H](O)[C@@H]2C3=C(C)C(=O)O[C@@H](c4ccoc4)[C@@H]3[C@@H](OC(C)=O)[C@H]21	14.6
C[C@@H]1C(=O)O[C@@]23CC[C@@]4(C)C(=O)OC[C@]45O[C@@](C4=C[C@@H](O)OC4=O)(C[C@H]1[C@]25C)O3	18.3
COC(=O)[C@]1(C)CCC[C@]2(C)[C@H]1[C@H](OC(C)=O)[C@H]1[C@H](c3ccoc3)OC(=O)[C@H](C)[C@]12O	7.5
C[C@H]1C(=O)O[C@@]23COC(=O)[C@]2(C)CC[C@@]2(O)O[C@H](c4ccoc4)C[C@H]1[C@@]32C	30.7
C[C@H]1C(=O)O[C@@]23COC(=O)[C@]2(C)CCC(=O)[C@@]3(C)[C@@H]1CC(=O)c1ccoc1	18.4
COC(=O)[C@]1(C)CCC[C@@]2(C)[C@@]3(O)[C@@H]([C@@H](O)[C@@]21O)[C@H](c1ccoc1)OC(=O)[C@@H]3C	8.2
CCCCNC(=O)NS(=O)(=O)c1ccc(C)cc1 [TOLBUTAMIDE]	19.9
